According to EP2573108A1, “Methods for identifying compounds capable of inhibiting degradation of PKM zeta” (SYGNIS Bioscience GmbH & Co KG, priority 2011, dated 2013):
Where two headings read alike, the source gives them in different places. Where a SMILES comes first, the peptide text is derived from it. The star is where a group is joined. Cbz = O=C(OCc1ccccc1)*

What was measured:
PKM zeta [1] = test: PKM zeta protein stability after translation block with cycloheximide (Western blot), COS cells; assay type: cell-based; settings: up to 48 h
Description: Electroporation of COS1 cells. COS1 cells were cultured in Dulbecco's modified eagle medium (DMEM) high glucose supplemented with 10% fetal calf serum (FCS). Cells were transfected with appropriate plasmids as indicated in the result section. For electroporation, COS-1 cells were harvested and resuspended in electroporation (EP)-buffer (50 mM K2HPO4, 20 mM CH3COOK, 20 mM KOH, pH 7.4) at a densitiy of 3.5x10^6 cells per transfection. After addition of 25 mM MgSO4, cells were mixed with 10 µg of plasmid-DNA (ratio of pulled down plasmid to co-expressed plasmid was 1:4; pure co-expression of two plasmids was performed in a ratio of 1:2) and transferred to an electroporation cuvette. Electroporation was performed in a Biorad Gene Pulsar II electroporator at 500 µF capacitance and 230 V, and cells were transferred into DMEM supplemented with 10% FCS and plated immediately. 48 h after transfection, cells were harvested for Co-IP. To perform western blot analysis, cells were stimulated 24 h after transfection for the indicated time points with cycloheximide and MG-132, respectively.
Western blotting. […] After syringing the lysate 5x, lysate was spun down at 13000 rpm at 4 °C for 10 min and the protein concentration of the supernate was determined (BCA-Test, Pierce). […] For quantification of scanned autoradiographs Windows ImageJ (NIH, Bethesda, MD,USA) was used.

PKM zeta [2] = test: PKM zeta protein stability after translation block with cycloheximide (Western blot), SHSY-5Y cells; assay type: cell-based
Description: Western blotting. […] Lysates were frozen in liquid nitrogen and stored afterwards at -20°C. After syringing the lysate 5x, lysate was spun down at 13000 rpm at 4 °C for 10 min and the protein concentration of the supernate was determined (BCA-Test, Pierce). 1/5 volume of 5x sample-buffer (with β-Mercaptoethanol) was added and samples were denatured at 95 °C for 5 min. 50 µg of protein was run on a SDS-PAGE and proteins were transferred to nitrocellulose membranes using an iBlot™ Dry Blotting System (Invitrogen, Karlsruhe, Germany). […] For quantification of scanned autoradiographs Windows ImageJ (NIH, Bethesda, MD,USA) was used.

KIBRA- PKM zeta complex = settings: for displacement of KIBRA from a pre-formed complex with PKM zeta: COS lysates, Fig. 4f
Description: (§1) Starting from aa 882, increasing 20aa stretches of KIBRA were deleted and constructs were tested for interaction with FLAG-tagged PKM zeta. […] PKM zeta-flag expression constructs were co-transfected with EGFP-fusion constructs containing the 956-975 PKM zeta binding motif. Amino acids from position 964 to 974 were mutated to Alanin. […] Increasing concentrations of the peptide were added to COS-lysates co-expressing KIBRA and FLAG- PKM zeta before pull-down with anti-FLAG beads. […] The C-terminal serine residues that can be phosphorylated by PKM zeta in vitro were mutated to alanine or glutamate. […] Neurons were infected with a KIBRA-EGFP fusion constructs.
(§2) Co-immunoprecipitation. 2d after electroporation, cells were washed twice with ice-cold 1xPBS, and lyesd (50 mM Tris/HCl pH 7.4, 150 mM NaCl, 0.5% NP40, 20 mM NaF, 2 mM EDTA, 2 mM EGTA, 2 mM orthovanadate, protease inhibitor cocktail) at 4°C. Lysate was incubated with anti-flag beads (Sigma) at 4 °C for 2h, 5µl of peptide solution was added as indicated. Protein was released by 1x SDS loading buffer (without reducing reagents) (95 °C for 5min).
(§3) In more detail, 2d after electroporation, COS cells were washed twice with ice-cold IxPBS, and protein extraction was carried out by lysis of cells with lysis-buffer (50 mM Tris/HCl pH 7.4, 150 mM NaCl, 0.5% NP40, 20 mM NaF, 2 mM EDTA, 2 mM EGTA, 2 mM orthovanadate, protease inhibitor cocktail) at 4 °C. After incubation for 20 min at 4°C, the lysate was spun down at 13500 rpm at 4 °C for 10 min. One part of the supernatant was kept for direct Western analysis (lysate).

PKM zeta [3] = settings: PKM zeta expressed in COS cells, Fig. 4e
Description: as §1, §2, §3

CC(C)C[C@@H](C=O)NC(=O)[C@H](CC(C)C)NC(=O)[C@H](CC(C)C)NC(=O)OCc1ccccc1 [MG132] (Cbz-Leu-Leu-Leu-aldehyde)
PKM zeta levels after CHX (PKM zeta [1]): prevented the time-dependent decrease in kinase levels
PKM zeta levels after CHX (PKM zeta [2]): prevented the time-dependent decrease in kinase levels

DSSTLSKKPPFVRNSLERRSVRMKRPSSVKS [synthetic peptide 948-978]
displacement of KIBRA from a pre-formed complex with PKM zeta (KIBRA- PKM zeta complex): able to disrupt a preformed KIBRA- PKM zeta complex
displacement of KIBRA from a pre-formed complex with PKM zeta (KIBRA- PKM zeta complex; listed as aa 948-978): able to displace KIBRA from a pre-formed complex with PKM zeta in a concentration-dependent manner
IC50 (KIBRA- PKM zeta complex; increasing concentrations of peptide added to COS-lysates co-expressing KIBRA and FLAG-PKM zeta before pull-down with anti-FLAG beads, estimated): ~60 nM
binding to PKM zeta (PKM zeta [3]; listed as aa 948-978): sufficient for binding
binding to PKM zeta (PKM zeta [3]; listed as synthetic biotin-labeled peptide): able to bind PKM zeta
